Series [1] is described as follows: Inhibition of HCV NS5B deltaC RNA polymerase. Details: species or system Hepacivirus hominis.
The subject of series [2] is Hepatitis C virus. The series is described as follows: Antiviral activity against HCV in Huh7 cells assessed as inhibition of viral replication in presence of 10% fetal calf serum. The series is classed as functional, organism-based, Hepacivirus hominis. Conditions: Huh-7.
The species entered for the next series is Homo sapiens. The series is described as follows: Protein binding in human plasma assessed as free drug level. Conditions: read-out: PPB.
Series [3] deals with Hepatitis C virus. The series is described as follows: Antiviral activity against HCV in Huh7 cells assessed as inhibition of viral replication in absence of serum. The series is classed as functional, organism-based, Hepacivirus hominis. Conditions: Huh-7.
Series [4] is described as follows: Oral bioavailability in rat at 3 mg/kg. It counts as ADME, organism-based. Conditions: in vivo.
Series [5] in a line: Terminal phase half life in rat at 3 mg/kg, iv. The series is classed as ADME, organism-based. The arrangement: dose 3 mg/kg, route intravenous. Conditions: in vivo.
The nature of series [6]: Plasma clearance in rat at 3 mg/kg, po or 3 mg/kg, iv. The series is classed as ADME, organism-based.
A short description of series [7]: AUC in rat at 3 mg/kg, po. Conditions: plasma. The arrangement: dose 3 mg/kg, route oral. The series is classed as ADME, organism-based.
The nature of series [8]: Cytotoxicity against Huh7 cells. The series is classed as cell-based, Huh-7. Conditions: human.
Series [9] in a line: Dissociation constant, pKa of the compound. It counts as physicochemical.

Calls of active or inactive are those of the source. The rule behind the calls is not given here.

For `COc1cccc(-c2c(C3CCCCC3)c3ccc(-c4noc(=O)[nH]4)cc3n2CC(=O)N2CCC(N(C)C)CC2)c1`, in series [1], half-maximal inhibition (IC50) required 67 nM. Also, in the series with Hepatitis C virus [2], the EC50 (in general, the concentration that produces a half-maximal response) worked out at 3700 nM.
Turning to `CN(C)CC1CN(C(=O)Cn2c(-c3ccoc3)c(C3CCCCC3)c3ccc(-c4noc(=O)[nH]4)cc32)CCO1` (stereo unspecified), the IC50 (commonly the concentration needed to halve the response being measured) in [1] is 26 nM. In the series on Hepatitis C virus [2], the EC50 was found to be 1100 nM.
In the case of `CN(C)C(=O)Cn1c(-c2ccccc2)c(C2CCCCC2)c2ccc(C(=O)NS(=O)(=O)Cc3ccccc3)cc21`, the fraction unbound in the series filed under Homo sapiens is less than 0.001. Moreover, in series [1], the IC50 was determined as 31 nM. The EC50 was found to be 5000 nM with Hepatitis C virus [2] and 150 nM in the series on Hepatitis C virus [3].
As to `CN(C)C(=O)Cn1c(-c2ccoc2)c(C2CCCCC2)c2ccc(C(=O)NS(=O)(=O)CC(=O)O)cc21`, in the series listed under Homo sapiens, the fraction unbound came out at 0.01. Also, 19 nM corresponded to half-maximal inhibition in series [1] (IC50). The EC50 in the series with Hepatitis C virus [2] stood at 560 nM.
Take `CCS(=O)(=O)NC(=O)c1ccc2c(C3CCCCC3)c(-c3ccccc3)n(CC(=O)N(C)C)c2c1.O=C(O)C(F)(F)F`: in series [4], the bioavailability (usually dose-corrected exposure relative to a reference, in per cent) turned out to be 24%.
Regarding `CN(C)C(=O)Cn1c(-c2ccccc2)c(C2CCCCC2)c2ccc(C(=O)O)cc21.O=C(O)C(F)(F)F`, in series [4], the bioavailability was found to be 45%.
`CN1CCCC(CN(C)C(=O)Cn2c(-c3ccccc3)c(C3CCCCC3)c3ccc(-c4noc(=O)[nH]4)cc32)C1` (stereo unspecified): the fraction unbound in the series listed under Homo sapiens was determined as 0.021. In [1], this compound returned an IC50 of 47 nM. Further, in the series on Hepatitis C virus [2], the EC50 was 1100 nM.
For the compound `CCS(=O)(=O)NC(=O)c1ccc2c(C3CCCCC3)c(-c3ccccc3)n(CC(=O)N(C)C)c2c1`, in [5], the half-life – broadly, how long it takes for the measured level to halve – was 120 min. For the same compound, in series [6], the clearance came to 51 mL/min/kg. The compound further showed an IC50 in [1] of 46 nM. In addition, in series [7], the AUC (commonly concentration integrated over time) turned out to be 1 µM·h. Besides, the results for the EC50 in the series on Hepatitis C virus [2] and in the series on Hepatitis C virus [3] were 2100 nM and 520 nM, respectively.
Consider `CN(C)C1CCN(C(=O)Cn2c(-c3cnn(C)c3)c(C3CCCCC3)c3ccc(-c4noc(=O)[nH]4)cc32)CC1`, for which the fraction unbound in the series filed under Homo sapiens worked out at 0.094. The compound also had an IC50 in series [1] of 170 nM. In addition, the half-maximal effective concentration (EC50) in the series on Hepatitis C virus [2] is more than 50000 nM.
Turning to `CCN(CC)CC1CN(C(=O)Cn2c(-c3ccc(OC)cc3)c(C3CCCCC3)c3ccc(C(=O)NS(=O)(=O)CC)cc32)CCO1` (stereo unspecified), in series [8], the CC50 (usually the concentration at which the toxic effect on the cells reaches its halfway point) amounted to 50 µM. This compound also displayed an IC50 in [1] of 9 nM. In the series on Hepatitis C virus [2], the EC50 is 340 nM.
On to `CN(C)C(=O)Cn1c(-c2ccccc2)c(C2CCCCC2)c2ccc(C(=O)NS(=O)(=O)N(C)C)cc21`, for which, in the series listed under Homo sapiens, the fraction unbound was found to be 0.008. In series [1], the IC50 was 9 nM. The EC50 with Hepatitis C virus [2] stood at 710 nM.
For `CCS(=O)(=O)NC(=O)c1ccc2c(C3CCCCC3)c(-c3ccc(OC)cc3)n(CC(=O)N(C)C)c2c1`, the IC50 in series [1] amounted to 11 nM. For the same compound, the EC50 with Hepatitis C virus [2] amounted to 1500 nM.
On to `CN1CCC(N(C)C(=O)Cn2c(-c3ccccc3)c(C3CCCCC3)c3ccc(-c4noc(=O)[nH]4)cc32)C1` (stereo unspecified), for which, in [1], the IC50 was 75 nM. Further, in the series on Hepatitis C virus [2], the EC50 amounted to 1600 nM.
As for `CN(C)C(=O)Cn1c(-c2ccccc2)c(C2CCCCC2)c2ccc(C(=O)N(C)S(=O)(=O)Cc3ccccc3)cc21`, in the series listed under Homo sapiens, the fraction unbound was determined as 0.001. For the same compound, the IC50 in series [1] was 640 nM. The outcome with Hepatitis C virus [2] (Hepacivirus hominis) was inactive.
For the compound `CN(C)C(=O)Cn1c(-c2ccccc2)c(C2CCCCC2)c2ccc(-c3noc(=O)[nH]3)cc21`, the pKa (as a rule, the pH at which an ionisable group is half protonated) in [9] is 4.8. Also, the half-life in [5] was 780 min. The fraction unbound in the series filed under Homo sapiens stood at 0.001. Moreover, in [6], the clearance was 12 mL/min/kg. In addition, in series [1], the 50% inhibitory concentration (IC50) came to 68 nM. Also, the AUC in series [7] was determined as 2 µM·h. Also, the EC50 with Hepatitis C virus [2] turned out to be 4400 nM.
Take `CN(C)C(=O)Cn1c(-c2cccnc2)c(C2CCCCC2)c2ccc(-c3noc(=O)[nH]3)cc21`: in series [1], 780 nM corresponded to half-maximal inhibition (IC50). The EC50 with Hepatitis C virus [2] was determined as 20000 nM.
Turning to `CN(C)C(=O)Cn1c(-c2ccoc2)c(C2CCCCC2)c2ccc(C(=O)NS(=O)(=O)N(C)C)cc21`, the fraction unbound in the series filed under Homo sapiens was found to be 0.011. In series [1], the 50% inhibitory concentration (IC50) was 14 nM. Also, the EC50 in the series with Hepatitis C virus [2] stood at 380 nM.
Turning to `CN(C)C(=O)Cn1c(-c2ccccc2)c(C2CCCCC2)c2ccc(C(=O)NS(=O)(=O)c3ccccc3)cc21`, in the series filed under Homo sapiens, the fraction unbound came to 0.003. In series [1], this compound registered an IC50 of 11 nM. The EC50 in the series on Hepatitis C virus [2] is 3900 nM; in the series on Hepatitis C virus [3], 130 nM.
Take `CN(C)C1CCN(C(=O)Cn2c(-c3ccccc3)c(C3CCCCC3)c3ccc(-c4noc(=O)[nH]4)cc32)CC1`: the half-inhibitory concentration (IC50) in [1] turned out to be 59 nM. Moreover, the EC50 in the series on Hepatitis C virus [2] worked out at 1300 nM.
In turn, `CN(C)C1CCN(C(=O)Cn2c(-c3ccccc3F)c(C3CCCCC3)c3ccc(-c4noc(=O)[nH]4)cc32)CC1` showed an IC50 in series [1] of 53 nM. Moreover, the EC50 in the series on Hepatitis C virus [2] turned out to be 2400 nM.
`CCS(=O)(=O)NC(=O)c1ccc2c(C3CCCCC3)c(-c3ccoc3)n(CC(=O)N(C)C)c2c1`: in the series listed under Homo sapiens, the fraction unbound was found to be 0.008. In addition, in series [1], the midpoint of inhibition, the IC50, lay at 22 nM. In addition, the EC50 in the series on Hepatitis C virus [2] is 1500 nM.
For `CN(C)C(=O)Cn1c(-c2ccccc2)c(C2CCCCC2)c2ccc(C(=O)NS(=O)(=O)CC(=O)O)cc21`, the IC50 in series [1] worked out at 29 nM. The EC50 in the series with Hepatitis C virus [2] worked out at 1600 nM.
With `CN(C)C(=O)Cn1c(-c2ccccc2)c(C2CCCCC2)c2ccc(-c3noc(=O)[nH]3)cc21.O=C(O)C(F)(F)F`, in [4], the bioavailability was 20%.
Turning to `CN(C)CCS(=O)(=O)NC(=O)c1ccc2c(C3CCCCC3)c(-c3ccccc3)n(CC(=O)N(C)C)c2c1`, in the series filed under Homo sapiens, the fraction unbound was determined as 0.019. The compound further yielded an IC50 in [1] of 31 nM. Further, the EC50 in the series on Hepatitis C virus [2] worked out at 5400 nM; in the series with Hepatitis C virus [3], 2000 nM.
On to `CCN(CC)C1CCN(C(=O)Cn2c(-c3ccoc3)c(C3CCCCC3)c3ccc(C(=O)NS(=O)(=O)N(C)C)cc32)CC1`, for which, in [8], the CC50 is 50 µM. In addition, the half-maximal inhibitory concentration (IC50) in [1] came to 4 nM. Also, the EC50 in the series on Hepatitis C virus [2] came out at 120 nM.
With `CN(C)C1CCN(C(=O)Cn2c(-c3ccc(Cl)cc3)c(C3CCCCC3)c3ccc(-c4noc(=O)[nH]4)cc32)CC1`, the concentration for half-maximal inhibition (IC50) in series [1] turned out to be 17 nM. In addition, the EC50 in the series with Hepatitis C virus [2] worked out at 1900 nM.
Consider `CN(C)C(=O)Cn1c(-c2ccccc2)c(C2CCCCC2)c2ccc(C(=O)O)cc21`, for which, in series [9], the pKa stood at 4.8. In series [5], the half-life is 300 min. Moreover, in [6], the clearance was 32 mL/min/kg. The compound also came in with an IC50 in series [1] of 86 nM. Moreover, in series [7], the AUC came to 2 µM·h. The EC50 in the series on Hepatitis C virus [2] came to 1500 nM.
Consider `Cc1ccccc1-c1c(C2CCCCC2)c2ccc(-c3noc(=O)[nH]3)cc2n1CC(=O)N1CCC(N(C)C)CC1`, for which the IC50 in [1] turned out to be 300 nM. Moreover, the EC50 in the series on Hepatitis C virus [2] was found to be 17000 nM.

Values taken from ChEMBL document CHEMBL1139776, “Development of carboxylic acid replacements in indole-N-acetamide inhibitors of hepatitis C virus NS5B polymerase” (Bioorg Med Chem Lett, 2007).
